Entries after “also recorded” stand apart in the source; their conditions may differ.
How the values were obtained:
[1] = tested on: VDAC1 in islets from T2D donors; assay: VDAC1 expression and localization in islets of T2D donors with documented metformin therapy; set-up: species or system human
Experimental: Donors were grouped according to HbA1c i.e. less than 6% (ND), between 6% and 6.5% (IGT), higher than 6.5% or history of diabetes (T2D). […] The islets were then hand-picked under stereomicroscope prior to use. […] Total RNA from handpicked mouse islets, human donor islets (Diabetic and non-diabetic) or [MUT] cells were extracted using RNAeasy (Qiagen, Hilden, Germany). […] Concentration and purity of total RNA was measured with a NanoDrop ND-1000 spectrophotometer (A260/A280>1.9 and A260/A230>1.4) (NanoDrop Technologies, Wilmington, Del.) and RNA Quality Indicator (RQI) higher than 8.0 (Experion Automated Electrophoresis, Bio-Rad, USA) was considered to be high-quality total RNA preparations. […] The qPCR was carried out as follows: 50° C. for 2 minutes, 95° C. for 10 minutes, 40 cycles of 95° C. for 15 seconds, and 60° C. for 1 minute. […] Isolated human or mouse islets as well as INS-1 cells were seeded on the glass-bottom dish cultured overnight. […] Primary antibodies against mouse VDAC1 (Abcam), goat VDAC2 (Abcam) and Guinea pig insulin (Eurodiagnostica) were diluted in blocking buffer and incubated overnight at 4° C. Immunoreactivity was quantified using fluorescently labeled secondary antibodies (1:200) and visualized by confocal microscopy (Carl Zeiss, Germany). The ratio is calculated by mean intensity of plasma membrane to mean intensity in cytosol, according to the formula:

[2] = target: VDAC1 (Rattus norvegicus, UniProt Q9Z2L0); assay: Channel conductance of VDAC1 reconstituted in planar lipid bilayer
[3] = tested on: human ND islets; assay: GSIS in non-diabetic human islets cultured at 5 or 20 mM glucose; format: cell-based
Excerpt: Human pancreatic islets were obtained through collaboration between Human Tissue Laboratory within Lund University Diabetes Centre (LUDC) and the Nordic Network for Clinical Islet Transplantation (Prof. Olle Korsgren, Uppsala University, Sweden). Donors were grouped according to HbA1c i.e. less than 6% (ND), between 6% and 6.5% (IGT), higher than 6.5% or history of diabetes (T2D). The human islets (70-90% purity) had been cultured in CMRL 1066 (ICN Biomedicals, Costa Mesa, Calif.) supplemented with 10 mM HEPES, 2 mM L-glutamine, […] gentamicin, […] fungizone (Gibco, BRL, Gaithersburg, Md.), 20 μg/ml ciprofloxacin (Bayer Healthcare, Leverkusen, Germany) and 10 mM nicotinamide at 37° C. (5% CO2) for 1 to 5 days prior to the arrival in the laboratory. The islets were then hand-picked under stereomicroscope prior to use. All procedures using human islets were approved by the ethical committees at Uppsala and Lund Universities, Sweden.
Human pancreatic islets were collected under a stereomicroscope at room temperature and cultured at 5.5 or 20 mM glucose in the absence or presence of test agents for 72 h. Thereafter the islets were washed and preincubated for 30 min at 37° C. in Krebs Ringer bicarbonate buffer, pH 7.4, supplemented with N-2 hydroxyethylpiperazine-N′-2-ethanesulfonic acid (10 mM), 0.1% bovine serum albumin, and 1 mM glucose. […]

[4] = tested on: TXNIP; details: insulin-secreting cells and endothelial cells (Shaked 2011; Li 2015); cited from earlier work
[5] = tested on: VDAC1 mRNA in human islets; assay: VDAC1 mRNA in non-diabetic human islets cultured under glucotoxic condition; format: cell-based; details: 72 h at 20 mM glucose, metformin 20 μM (FIG. 1d)
Experimental: Total RNA from handpicked mouse islets, human donor islets (Diabetic and non-diabetic) or [MUT] cells were extracted using RNAeasy (Qiagen, Hilden, Germany). […] Concentration and purity of total RNA was measured with a NanoDrop ND-1000 spectrophotometer (A260/A280>1.9 and A260/A230>1.4) (NanoDrop Technologies, Wilmington, Del.) and RNA Quality Indicator (RQI) higher than 8.0 (Experion Automated Electrophoresis, Bio-Rad, USA) was considered to be high-quality total RNA preparations. […] The qPCR was carried out as follows: 50° C. for 2 minutes, 95° C. for 10 minutes, 40 cycles of 95° C. for 15 seconds, and 60° C. for 1 minute. […] VDAC1 and VDAC2 mRNA and protein level were investigated by both qPCR and Western blotting relative to the expression of GAPDH and β-actin respectively.

[6] = tested on: islets of diabetic db/db mice; assay: ATP content, ATP release and GSIS in islets of diabetic db/db mice; format: cell-based, mouse
Experimental: 5 weeks old db/db mice and control (C57/bl) (Janvier Laboratory, France), weighing 18-25 g, were used throughout the experiments. They were given a standard pellet diet (B&K) and tap water ad libitum. The experimental procedures were approved by the Ethics Committee for Animal Research at Lund University. Isolation of pancreatic islets was performed by retrograde injection of a collagenase solution via the bile-pancreatic duct and islets were then collected under a stereomicroscope at room temperature.
Human pancreatic islets were collected under a stereomicroscope at room temperature and cultured at 5.5 or 20 mM glucose in the absence or presence of test agents for 72 h. Thereafter the islets were washed and preincubated for 30 min at 37° C. in Krebs Ringer bicarbonate buffer, pH 7.4, supplemented with N-2 hydroxyethylpiperazine-N′-2-ethanesulfonic acid (10 mM), 0.1% bovine serum albumin, and 1 mM glucose. Each incubation vial contained 12 islets in 1.0 ml KRB buffer solution and treated with 95% O2 and 5% CO2 to obtain constant pH and oxygenation. After preincubation, the buffer was changed to a medium containing either 1 mM or 16.7 mM glucose. The islets were then incubated for 1 h at 37° C. in a metabolic shaker (30 cycles per min). Immediately after incubation an aliquot of the medium was removed for analysis of insulin and the islets were incubated in acid-ethanol for insulin content determination by radioimmunoassay.
(§1) ATP release from isolated mouse or human islets or from INS-1 cells after transfection with mitochondrial targeted VDAC1 (mtVDAC1) or plasma membrane targeted VDAC1 (plVDAC1) plasmids was determined using a luminometric assay kit according to manufacturer's recommendation (Biovision). After incubation of islets (50/vial) or INS-1 cells for 60 min, an aliquot of the media was removed for subsequent measurements of released ATP. Then the islets or INS-1 cells were washed 3 times and the lysates were used for measurements of ATP and protein contents followed the protocol provided by the vendor.

[7] = tested on: human islet cells; assay: Cellular reductive capacity (MTS) in human islets; format: cell-based; details: VDAC1 antibody 10 nM
Experimental: The reductive capacity of cells was measured either on INS-1 cells or dispersed human islet cells when the INS-1 cells or islets were subjected to 5 or 20 mM glucose for 72 h in the absence or presence of test agents or after down-regulation of VDAC1 and VDAC2 as described elsewhere (35, 40). Measurement of reductive capacity was performed using the MTS reagent kit according to the manufacturer's instructions (Promega). Apoptosis was measured with the Cell Death Kit (Roche Diagnostics), which quantifies the appearance of cytosolic nucleosomes.

[8] = target: T1, plasma membrane targeted VDAC1 (plVDAC1) (Mus musculus, UniProt Q60932); assay: ATP release and ATP content of INS-1 cells transfected with plasma membrane targeted VDAC1; format: cell-based; details: plVDAC1-transfected INS-1 cells, 1 h at 1 mM glucose; for ATP release (loss of cellular ATP): VDAC1-ab 10 nM, metformin, AKOS, VBIT-4 20 μM each (FIG. 4c)
T1 construct: expressed in transfected cells; host or cells: INS-1 832/13 cells (rat insulinoma), transient transfection; plasmid a gift from Dr. R. Buettner
Experimental: as §1
INS-1 cells were transiently transfected with a plasmid encoding plasma membrane targeted VDAC1 (pVDAC1) as described in the Material and Method section herein above and in Example 3 (see also Buettner et al 2000. PNAS 97:3201-3206). After transfection (24-32 h and 2-4 h recovery in normal culture medium, RPMI 1640 with complete supplement) the INS-1 cells were washed followed by preincubation in SAB-buffer (See Material and Method above) containing 2.8 mM glucose. The final 1 h incubation was performed in SAB-buffer containing 1 mM glucose and the VDAC1 inhibitory compounds to be tested. At the end, the cells were lysed using lysis buffer, sonicated and the lysate as well as the incubation medium were analyzed for ATP content using a commercially available kit (Biovision, K354-100). Cellular protein content was analyzed by Pierce™ BCA protein assay kit (Thermo Scientific, USA).

[9] = tested on: db/db mice; assay: Oral (gavage) administration of VBIT-4 to db/db mice, blood glucose; format: in vivo, mouse
Experimental: Next, the effect of orally administered VBIT-4 on blood glucose in db/db mice was examined. VBIT-4 at the indicated doses or vehicle was administered by gavage to db/db mice from the age of 6-11 weeks. Blood was sampled and […] once a week. Blood glucose was measured by a handheld device ContourXt (Bayer) using blood glucose strips.

T1 sequence (Q60932 whole entry): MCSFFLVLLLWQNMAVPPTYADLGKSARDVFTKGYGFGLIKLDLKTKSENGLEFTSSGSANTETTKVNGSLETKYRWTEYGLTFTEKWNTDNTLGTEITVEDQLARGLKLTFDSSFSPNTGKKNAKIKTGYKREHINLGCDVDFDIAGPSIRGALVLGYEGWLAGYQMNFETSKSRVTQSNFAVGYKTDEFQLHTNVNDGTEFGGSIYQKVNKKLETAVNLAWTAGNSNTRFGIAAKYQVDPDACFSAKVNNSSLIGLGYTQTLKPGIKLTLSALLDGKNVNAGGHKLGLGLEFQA
VDAC1, sequence (Q9Z2L0 whole entry): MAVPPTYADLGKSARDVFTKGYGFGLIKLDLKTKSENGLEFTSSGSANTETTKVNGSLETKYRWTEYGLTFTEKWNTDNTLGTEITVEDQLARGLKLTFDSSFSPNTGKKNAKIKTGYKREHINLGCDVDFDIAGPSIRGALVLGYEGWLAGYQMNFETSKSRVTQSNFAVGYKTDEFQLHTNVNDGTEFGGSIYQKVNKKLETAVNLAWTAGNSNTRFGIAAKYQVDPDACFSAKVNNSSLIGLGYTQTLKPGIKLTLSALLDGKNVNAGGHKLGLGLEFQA

## CN(C)C(=N)N=C(N)N [metformin]
[1]; islets from T2D donors with documented metformin therapy (n=4)
  islet VDAC1 mRNA: did not display elevated VDAC1 mRNA
[1]; single examined T2D donor with documented metformin therapy (FIG. 3a, 3b)
  VDAC1 localization in β-cells: remained intracellular
[2]; metformin 30 μM, 10-30 min after addition (FIG. 4g)
  conductance of VDAC1 reconstituted into a planar lipid bilayer: blocks conductance
[2]; read-out: inhibition of channel conductance
  inhibition at 30 µM: 50%
[3]; 72 h culture with agent (FIG. 6d)
  GSIS after culture at 5 mM glucose: unaffected
[3]; 72 h culture with agent, then 1 h at 1G or 16.7G (FIG. 6d)
  GSIS after culture at 20 mM glucose: prevented the attenuation of GSIS
[4]
  TXNIP activation by high glucose concentrations: inhibits TXNIP activation
[5]
  VDAC1 mRNA: prevented the increase in VDAC1 mRNA
[6]; islets from hyperglycemic db/db mice (FIG. 6c)
  insulin secretion in low glucose: no effect
[6]; islets from hyperglycemic db/db mice, acute addition 1 h, VDAC1 antibody 10 nM, metformin 20 μM (FIG. 6a)
  cellular ATP levels: increased its cellular levels
[6]; islets from hyperglycemic db/db mice, acute addition 1 h, VDAC1 antibody 10 nM, metformin 20 μM (FIG. 6b)
  ATP release: reduced ATP release
[6]; islets from hyperglycemic db/db mice, compared to control (FIG. 6c)
  insulin secretion at 16.7 mM glucose: increased insulin secretion
[7]; metformin 20 μM (FIG. 6h)
  cellular reductive capacity (metabolism) in T2D islets: markedly improved metabolism
[7]; human islets, metformin 20 μM (FIG. 6g)
  cellular reductive capacity after culture at 5 mM glucose: no effect
[8]
  ATP release (loss of cellular ATP): prevented; also recorded: rapidly inhibited

## O=C(CC(CO)N1CCN(c2ccc(OC(F)(F)F)cc2)CC1)Nc1ccc(Cl)cc1 (racemic) [VBIT-4, N-(4-chlorophenyl)-4-hydroxy-3-(4-(4-(trifluoromethoxy)phenyl)-piperazin-1-yl)butanamide]
[9]; daily gavage for 5 weeks, age 6-11 weeks (FIG. 8)
  blood glucose: reduced blood glucose
[9]; gavage, 10 mg/Kg body weight, 5 weeks
  reduction of blood glucose concentration: the reduction was significant along the entire trail period
[8]; racemate and enantiomers (FIG. 9a), listed as racemic VBIT-4
  ATP release: efficiently inhibit ATP release; also recorded: no discernible difference
[8]; racemate and enantiomers (FIG. 9b), listed as racemic VBIT-4
  cellular ATP content: increase cellular ATP content; also recorded: intermediate between that of its enantiomers 1 and 2
[8]
  ATP release (loss of cellular ATP): prevented; also recorded: rapidly inhibited

— patent US20210130291A1, “METHODS FOR TREATING DIABETES USING VDAC1 INHIBITORS” (THE NATIONAL INSTITUTE FOR BIOTECHNOLOGY IN THE NEGEV LTD., priority 2016, published 2021)
